What all share (assay type): cell-based
Assay [1] has as its target T1, murine CCR2 (Mus musculus, UniProt P51683).
T1 construct: host or cells: U2OS β-arrestin cell line
Description: Functional β-arrestin recruiting test with human MCP-1 (B-2a). Particulars: U2OS β-arrestin cell line transfected with murine CCR2; agonist human MCP-1 at EC50 (about 3 nM); in some cases means of several determinations. The procedure, abridged: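 Antagonist mode in U2OS cells expressing murine CCR2, read by PathHunter β-galactosidase complementation luminescence. Cells pre-incubated 10 min with 10-point compound dilutions (1:3.16 steps), then stimulated with human MCP-1 at its EC50 (usually about 3 nM) for 90 min at 37° C.; IC50 from 4-parameter logistic fit.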
For orientation: Arrestin recruitment assays detect the binding of arrestin to an activated receptor.

Assay [2] concerns the target T1, murine CCR2. Description: Functional β-arrestin recruiting test with murine MCP-1 (B-2b). Particulars: U2OS β-arrestin cell line transfected with murine CCR2; agonist murine MCP-1; in some cases means of several determinations. In short, it runs like this:
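In a PathHunter β-galactosidase complementation assay, U2OS cells expressing murine CCR2 were preincubated 10 min with compound (10-point, 1:3.16 dilutions), then challenged with murine MCP-1 at its predetermined EC50 for 90 min at 37 °C. Luminescence was read after 60 min, and IC50 was fitted with a 4-parameter Hill function.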

The target of the next assay is T2, human CCR2 (Homo sapiens, UniProt P41597).
T2 construct: host or cells: Chem-1 cell line
T2 sequence (P41597 1-360 isoform P41597-2): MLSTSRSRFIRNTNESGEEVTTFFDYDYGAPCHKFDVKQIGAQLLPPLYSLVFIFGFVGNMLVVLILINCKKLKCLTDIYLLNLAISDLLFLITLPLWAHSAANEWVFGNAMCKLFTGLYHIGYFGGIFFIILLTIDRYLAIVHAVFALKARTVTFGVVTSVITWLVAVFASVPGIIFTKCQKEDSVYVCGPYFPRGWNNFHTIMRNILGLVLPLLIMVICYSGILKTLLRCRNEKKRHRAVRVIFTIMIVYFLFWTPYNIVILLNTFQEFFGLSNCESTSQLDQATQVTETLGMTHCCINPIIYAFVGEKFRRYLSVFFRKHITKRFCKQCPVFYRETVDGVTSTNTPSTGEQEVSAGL
Description: Functional Ca2+ release test (B-1). The following applies: Chem-1 cell line transfected with human CCR2; 50% inhibition of the MCP-1 effect, MCP-1 at EC50 (about 5 nM); in some cases means of several determinations. In short, it runs like this:
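Chem-1 cells expressing human CCR2, loaded with Fluo-4 for 60 min at 37° C, were preincubated 10 min with compound (10-point, 1:3.16 dilutions), then stimulated with MCP-1 at its predetermined EC50 (about 5 nM). Ca2+ release was monitored for 120 s. IC50 came from a 4-parameter Hill fit.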

IC50 data for 24 compounds are collected here from patent US20160237059A1, “HETEROCYCLIC SUBSTITUTED TRIFLUOROMETHYL PYRIMIDINONES AND THEIR USE” (BAYER PHARMA AKTIENGESELLSCHAFT, priority 2013, published 2016).

T1 sequence (P51683 whole entry): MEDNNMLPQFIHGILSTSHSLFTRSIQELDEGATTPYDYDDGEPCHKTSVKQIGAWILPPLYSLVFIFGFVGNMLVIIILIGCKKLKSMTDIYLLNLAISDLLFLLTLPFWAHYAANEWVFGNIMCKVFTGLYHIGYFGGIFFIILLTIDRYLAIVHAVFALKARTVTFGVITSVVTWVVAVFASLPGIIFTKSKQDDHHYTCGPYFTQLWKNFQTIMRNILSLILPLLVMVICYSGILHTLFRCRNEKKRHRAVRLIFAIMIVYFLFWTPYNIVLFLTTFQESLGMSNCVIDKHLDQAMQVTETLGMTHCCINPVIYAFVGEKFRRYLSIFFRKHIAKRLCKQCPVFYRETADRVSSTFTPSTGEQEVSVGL

For orientation: IC50 means the midpoint of a concentration-inhibition curve. With `O=c1[nH]c(-c2ncon2)nc(C(F)(F)F)c1Oc1ccc(Cl)c(C(F)(F)F)c1` [Example 78, 5-[4-Chloro-3-(trifluoromethyl)phenoxy]-2-(1,2,4-oxadiazol-3-yl)-6-(trifluoromethyl)pyrimidin-4(3H)-one], the IC50 was 16 nM on murine CCR2 [1], 50 nM on murine CCR2 [2] and 3.7 nM against human CCR2.
On the same counts, the results for `O=c1[nH]c(-c2n[nH]cc2Cl)nc(C(F)(F)F)c1Cc1ccc(Cl)c(C(F)(F)F)c1` [Example 76, 2-(4-chloro-1H-pyrazol-3-yl)-5-[4-chloro-3-(trifluoromethyl)benzyl]-6-(trifluoromethyl)pyrimidin-4(3H)-one] are 26 nM, 111 nM and 1.5 nM.
Regarding `O=c1[nH]c(-c2ncccc2Cl)nc(C(F)(F)F)c1Oc1ccc(Cl)c(F)c1` [Example 11, 5-(4-chloro-3-fluorophenoxy)-2-(3-chloropyridin-2-yl)-6-(trifluoromethyl)pyrimidin-4(3H)-one], the IC50 on murine CCR2 [1] turned out to be 28 nM; at murine CCR2 [2], 194 nM; against human CCR2 it was 4.3 nM.
The corresponding values for `O=c1[nH]c(-c2cc[nH]n2)nc(C(F)(F)F)c1Oc1ccc(Cl)c(C(F)(F)F)c1` [Example 65, 5-[4-chloro-3-(trifluoromethyl)phenoxy]-2-(1H-pyrazol-3-yl)-6-(trifluoromethyl)pyrimidin-4(3H)-one] are 1.8 nM, 4.8 nM and 0.3 nM.
As to `Nc1cnn(-c2nc(C(F)(F)F)c(Oc3ccc(Cl)c(Cl)c3)c(=O)[nH]2)c1` [Example 47, 2-(4-Amino-1H-pyrazol-1-yl)-5-(3,4-dichlorophenoxy)-6-(trifluoromethyl)pyrimidin-4(3H)-one], the 50% inhibitory concentration (IC50) was 3.6 nM at murine CCR2 [1], 95 nM on murine CCR2 [2] and 1 nM at human CCR2.
Take `O=c1[nH]c(-c2ccccn2)nc(C(F)(F)F)c1Oc1ccc(F)c(Cl)c1` [Example 2, 5-(3-chloro-4-fluorophenoxy)-2-(pyridin-2-yl)-6-(trifluoromethyl)pyrimidin-4(3H)-one]: the IC50 at murine CCR2 [1] was 88 nM; on murine CCR2 [2], 1040 nM; against human CCR2, 4.5 nM.
For the compound `O=c1[nH]c(-n2cccn2)nc(C(F)(F)F)c1Oc1ccc(Cl)c(Cl)c1` [Example 51, 5-(3,4-dichlorophenoxy)-2-(1H-pyrazol-1-yl)-6-(trifluoromethyl)pyrimidin-4(3H)-one], the half-maximal inhibitory concentration (IC50) came to 20 nM on murine CCR2 [1], 112 nM at murine CCR2 [2] and 0.5 nM on human CCR2.
For the compound `O=c1[nH]c(-n2cccn2)nc(C(F)(F)F)c1Cc1ccc(Cl)c(C(F)(F)F)c1` [Example 71, 5-[4-chloro-3-(trifluoromethyl)benzyl]-2-(1H-pyrazol-1-yl)-6-(trifluoromethyl)pyrimidin-4(3H)-one], the IC50 at murine CCR2 [1] was 57 nM; at murine CCR2 [2], 1080 nM; against human CCR2, 3 nM.
Turning to `O=c1[nH]c(-c2ncccc2F)nc(C(F)(F)F)c1Oc1ccc(Cl)c(Cl)c1` [Example 15, 5-(3,4-dichlorophenoxy)-2-(3-fluoropyridin-2-yl)-6-(trifluoromethyl)pyrimidin-4(3H)-one], the values for the IC50 at murine CCR2 [1], on murine CCR2 [2] and at human CCR2 were 30 nM, 144 nM and 2 nM, respectively.
As to `O=c1[nH]c(-c2ncc(F)cc2F)nc(C(F)(F)F)c1Oc1ccc(Cl)c(Cl)c1` [Example 4, 5-(3,4-dichlorophenoxy)-2-(3,5-difluoropyridin-2-yl)-6-(trifluoromethyl)pyrimidin-4(3H)-one], the 50% inhibitory concentration (IC50) at murine CCR2 [1] is 87 nM; at murine CCR2 [2] it was 380 nM; against human CCR2 it was 2.9 nM.
In the case of `Nc1cnn(-c2nc(C(F)(F)F)c(Oc3ccc(Cl)c(C(F)(F)F)c3)c(=O)[nH]2)c1` [Example 108, 2-(4-amino-1H-pyrazol-1-yl)-5-[4-chloro-3-(trifluoromethyl)phenoxy]-6-(trifluoromethyl)pyrimidin-4(3H)-one], the figures for the concentration for half-maximal inhibition (IC50) at murine CCR2 [1], at murine CCR2 [2] and on human CCR2 were 2.7 nM, 27 nM and 0.8 nM, respectively.
In the case of `O=c1[nH]c(-c2ccccn2)nc(C(F)(F)F)c1Oc1ccc(Cl)c(Cl)c1` [Example 3, 5-(3,4-dichlorophenoxy)-2-(pyridin-2-yl)-6-(trifluoromethyl)pyrimidin-4(3H)-one], the figures for the IC50 at murine CCR2 [1], on murine CCR2 [2] and against human CCR2 were 31 nM, 205 nM and 1.2 nM, respectively.
For `Nc1cccc(-c2nc(C(F)(F)F)c(Oc3ccc(Cl)c(C(F)(F)F)c3)c(=O)[nH]2)n1` [Example 44, 2-(6-aminopyridin-2-yl)-5-[4-chloro-3-(trifluoromethyl)phenoxy]-6-(trifluoromethyl)pyrimidin-4(3H)-one], the 50% inhibitory concentration (IC50) was 74 nM on murine CCR2 [1], 222 nM on murine CCR2 [2] and 2.2 nM against human CCR2.
As for `COc1ncccc1-c1nc(C(F)(F)F)c(Oc2ccc(Cl)c(Cl)c2)c(=O)[nH]1` [Example 42], the IC50 at murine CCR2 [1] stood at 44 nM; on murine CCR2 [2] it was 812 nM; at human CCR2, 1.5 nM.
Consider `Nc1cnn(-c2nc(C(F)(F)F)c(Cc3ccc(Cl)c(C(F)(F)F)c3)c(=O)[nH]2)c1` [Example 107, 2-(4-Amino-1H-pyrazol-1-yl)-5-[4-chloro-3-(trifluoromethyl)benzyl]-6-(trifluoromethyl)pyrimidin-4(3H)-one], for which the IC50 at murine CCR2 [1] was 28 nM; on murine CCR2 [2], 53 nM; on human CCR2 it was 2.4 nM.
For `O=c1[nH]c(-c2n[nH]cc2Cl)nc(C(F)(F)F)c1Oc1ccc(Cl)c(C(F)(F)F)c1` [Example 77, 2-(4-chloro-1H-pyrazol-3-yl)-5-[4-chloro-3-(trifluoromethyl)phenoxy]-6-(trifluoromethyl)pyrimidin-4(3H)-one], the results for the IC50 at murine CCR2 [1], at murine CCR2 [2] and at human CCR2 were 6.3 nM, 18 nM and 2 nM, respectively.
Regarding “5-(3,4-dichlorobenzyl-2-(3-methoxypyridin-2-yl)-6-(trifluoromethyl)pyrimidin-4(3H)-one [Example 23]”, the IC50 is 25 nM on murine CCR2 [1], 135 nM on murine CCR2 [2] and 0.4 nM at human CCR2.
Take `O=c1[nH]c(-c2n[nH]cc2Cl)nc(C(F)(F)F)c1Oc1ccc(Cl)c(Cl)c1` [Example 74, 2-(4-chloro-1H-pyrazol-3-yl)-5-(3,4-dichlorophenoxy)-6-(trifluoromethyl)pyrimidin-4(3H)-one]: the half-maximal inhibitory concentration (IC50) on murine CCR2 [1] turned out to be 2.9 nM; at murine CCR2 [2] it was 59 nM; against human CCR2 it was 1.1 nM.
For `O=c1[nH]c(-c2ncccc2Cl)nc(C(F)(F)F)c1Oc1ccc(F)c(Cl)c1` [Example 14, 5-(3-chloro-4-fluorophenoxy)-2-(3-chloropyridin-2-yl)-6-(trifluoromethyl)pyrimidin-4(3H)-one], the concentration for half-maximal inhibition (IC50) came to 25 nM on murine CCR2 [1], 260 nM at murine CCR2 [2] and 11 nM against human CCR2.
As for `Cn1cnc(-c2nc(C(F)(F)F)c(Oc3ccc(Cl)c(C(F)(F)F)c3)c(=O)[nH]2)c1` [Example 59, 5-[4-chloro-3-(trifluoromethyl)phenoxy]-2-(1-methyl-1H-imidazol-4-yl)-6-(trifluoromethyl)pyrimidin-4(3H)-one], the IC50 worked out at 12 nM at murine CCR2 [1], 106 nM at murine CCR2 [2] and 0.6 nM against human CCR2.
Consider `COc1cccnc1-c1nc(C(F)(F)F)c(Oc2ccc(Cl)c(Cl)c2)c(=O)[nH]1` [Example 24, 5-(3,4-dichlorophenoxy)-2-(3-methoxypyridin-2-yl)-6-(trifluoromethyl)pyrimidin-4(3H)-one], for which the results for the concentration for half-maximal inhibition (IC50) at murine CCR2 [1], at murine CCR2 [2] and against human CCR2 were 8.2 nM, 54 nM and 0.4 nM, respectively.
Consider `COc1ncccc1-c1nc(C(F)(F)F)c(Oc2ccc(Cl)c(C(F)(F)F)c2)c(=O)[nH]1` [Example 37, 5-[4-chloro-3-(trifluoromethyl)phenoxy]-2-(2-methoxypyridin-3-yl)-6-(trifluoromethyl)pyrimidin-4(3H)-one], for which the IC50 was determined as 40 nM on murine CCR2 [1], 122 nM at murine CCR2 [2] and 0.9 nM against human CCR2.
Consider `Cc1nc(-c2nc(C(F)(F)F)c(Oc3ccc(Cl)c(Cl)c3)c(=O)[nH]2)no1` [Example 83], for which the values for the IC50 on murine CCR2 [1], at murine CCR2 [2] and on human CCR2 were 79 nM, 308 nM and 20 nM, respectively.
On the same counts, the results for `Nc1ccnc(-c2nc(C(F)(F)F)c(Oc3ccc(Cl)c(C(F)(F)F)c3)c(=O)[nH]2)c1` [Example 45, 2-(4-aminopyridin-2-yl)-5-[4-chloro-3-(trifluoromethyl)phenoxy]-6-(trifluoromethyl)pyrimidin-4(3H)-one] are 86 nM, 553 nM and 4.7 nM.
